≈ marks a conversion by molar mass, not a printed value.
Key:
[1] = system: mold fungi (Alternaria tenuis, Aspergillus flavus, Aspergillus niger, Aspergillus ustus, Cindosporum herbarum, Paecilomyces variotii, Penicillium citrium …); experiment: Test of dispersion coatings for resistance to mold; type: cell-based; settings: coatings according to recipe A containing 1.0% (based on solids) of compound; even after rinsing out and wind tunnel exposure; 2-3 weeks, 29±1° C., 80-90% rel. humidity
Method: To test dispersion coatings for resistance to mold, the following procedure was adopted:
The paint to be tested was applied to both sides of a suitable base. To obtain results which are close to practice, some of the test specimens were rinsed out with running water (24 h, 20° C.) before the test for mold resistance; others were treated with a current of warm fresh air (7 days, 40° C.).
The samples prepared in this way were then placed on an agar nutrient medium, and both samples and nutrient medium were contaminated with fungal spores. After 2-3 weeks storage (29±1° C., 80-90% rel. atmospheric humidity), the samples were compared.
The coating is considered to be permanently mold-resistant if the sample remains free from fungus or at most a slight border infestation can be detected.
For the contamination, fungal spores of the following mold fungi were used, which are known as paint destroyers or are frequently encountered on coatings: […]

[2] = system: Penicillium brevicaule; experiment: Minimum inhibitory concentration (MIC) against fungi on malt extract agar; type: cell-based; settings: 336 h, 2 weeks at 28° C., 60 to 70% relative atmospheric humidity, read-out: Minimum inhibitory concentrations Penicillium brevicaule
Method: (§1) In each case, the active compounds according to the invention, in concentrations of from 0.1 mg/l to 5000 mg/l, were added to an agar which had been prepared using malt extracts. The MIC was determined after 2 weeks of storage at 28° C. and 60 to 70% relative atmospheric humidity. The MIC is the lowest concentration of active compound at which there is no colonization by the microbial species used.

[3] = system: Aspergillus niger; experiment: as above; type: cell-based; settings: 336 h, 2 weeks at 28° C., 60 to 70% relative atmospheric humidity, read-out: Minimum inhibitory concentrations Aspergillus niger
Method: as §1

[4] = system: Chaetomium globosum; experiment: as above; type: cell-based; settings: 336 h, 2 weeks at 28° C., 60 to 70% relative atmospheric humidity, read-out: Minimum inhibitory concentrations Chaetomium globosum
Method: as §1

For `Ic1nnnn1-c1ccccc1` [Example 2, 5-Iodo-1-phenyltetrazole], the “Mold resistance of coating” value [1] was “mold resistant”, the MIC [2] was under 40 µg/mL and the MIC [3] was under 40 µg/mL. The MIC [4] was under 40 µg/mL and the melting point was 123 to 129 °C.

`CCCCn1nnnc1I` [Example 1, 5-Iodo-1-butyltetrazole] showed an MIC [2] of under 1 µg/mL, an MIC [3] of 5 µg/mL (≈ 19.8 µM) and an MIC [4] of 5 µg/mL (≈ 19.8 µM). It also gave a melting point of 31 to 37 °C.

Source: patent publication US8048903B2, “5-iodotetrazoles” (LANXESS Deutschland GmbH, priority 2004, dated 2011)
